In one assay the test system is mesenteric artery. Briefly: Relaxation of mesenteric artery (KCl-contracted). Conditions: rabbit mesenteric artery contracted with 15 to 20 mM KCl, read-out: ED50 (concentration attaining 50% of complete relaxation). The method, then:
1. Relaxation of Mesenteric Artery
A rabbit of Japanese local variety weighing about 3 kg was bled to death. Then, the abdomen of the rabbit was dissected to locate a mesenteric artery. […] Thus, shrinking and relaxation of the artery could be measured as a load on the transducer. To the organ bath, KCl was added so that the KCl concentration became 15 to 20 mM, causing the artery to shrink. Then, the compounds of the present invention were added to the organ bath to observe relaxation of the artery.
The effect of the compounds of the present invention on relaxation of mesenteric artery was examined according to the method as mentioned hereinbefore.

In another assay the test system is bronchial tubes. Briefly: Inhibition of histamine contraction of bronchial tubes (relaxation of bronchial tubes). Conditions: guinea pig bronchial tube, 10 μM histamine, Table 16, read-out: ED50 (50% decrease of histamine contraction of bronchial tubes). The method, then: 3. Inhibition of Histamine Contraction of Bronchial Tubes (Relaxation of Bronchial Tubes)
That is, a bronchial tube sample taken from a guinea pig was suspended in the 20-ml bath filled with Krebs-Henseleit nutrient solution and maintained at a temperature of 37° C. To the bath was added histamine so that the histamine concentration became 10 μM, causing the bronchial tube sample to contract. After the contraction became stable, the compounds of the present invention were added cumulatively to the bath to observe relaxation of the bronchial tube sample.
The effect of the compounds of the present invention on relaxation of bronchial tubes was examined according to the method as mentioned hereinbefore.

Like-named read-outs stand apart in the source and are kept apart here.

Turning to `NC1CCN(S(=O)(=O)c2cccc3c(O)nccc23)CC1` [Compound (79), 1-(1-hydroxy-5-isoquinolinesulfonyl)-4-aminopiperidine], the EC50 with mesenteric artery (Oryctolagus cuniculus) stood at 15 µM; in the assay on bronchial tubes (Cavia porcellus), 13 µM.

`CCCCCCN(CCCCCN)S(=O)(=O)c1cccc2cnccc12` [Compound (9), N-(5-aminopentyl)-N-hexyl-5-isoquinolinesulfonamide]: the figures for the EC50 in the assay on mesenteric artery (Oryctolagus cuniculus) and in the assay with bronchial tubes (Cavia porcellus) were 9 µM and 15 µM, respectively.

Turning to `CCNC1CCCN(S(=O)(=O)c2cccc3c(Cl)nccc23)C1` (stereo not drawn) [Compound (97), 1-(1-chloro-5-isoquinolinesulfonyl)-3-ethylaminopiperidine], the EC50 was 15 µM with mesenteric artery (Oryctolagus cuniculus) and 10 µM in the assay with bronchial tubes (Cavia porcellus).

In the case of `CCCCCCNC1CCN(S(=O)(=O)c2cccc3cnccc23)CC1` [Compound (57), 1-(5-isoquinolinesulfonyl)-4-hexylaminopiperidine], the EC50 was determined as 15 µM in the assay on mesenteric artery (Oryctolagus cuniculus) and 20 µM in the assay with bronchial tubes (Cavia porcellus).

In the case of `O=S(=O)(c1cccc2c(O)nccc12)N1CCCC(Nc2ccccc2)C1` (stereo not drawn) [Compound (87), 1-(1-hydroxy-5-isoquinolinesulfonyl)-3-phenylaminopiperidine], the figures for the EC50 in the assay on mesenteric artery (Oryctolagus cuniculus) and in the assay on bronchial tubes (Cavia porcellus) were 20 µM and 15 µM, respectively.

`CCN(CC)CCN(C)S(=O)(=O)c1cccc2cnccc12` [Compound (42), N-(2-diethylaminoethyl)-N-methyl-5-isoquinolinesulfonamide]: the EC50 in the assay on mesenteric artery (Oryctolagus cuniculus) stood at 15 µM; in the assay with bronchial tubes (Cavia porcellus), 25 µM.

Consider `O=S(=O)(c1cccc2c(O)nccc12)N1CCCC(NCCc2ccccc2)C1` (stereo not drawn) [Compound (89), 1-(1-hydroxy-5-isoquinolinesulfonyl)-3-phenethylaminopiperidine], for which the EC50 is 12 µM with mesenteric artery (Oryctolagus cuniculus) and 10 µM with bronchial tubes (Cavia porcellus).

For the compound `CNC1CCN(S(=O)(=O)c2cccc3cnccc23)C1` (stereo not drawn) [Compound (76), 1-(5-isoquinolinesulfonyl)-3-methylaminopyrrolidine], the EC50 worked out at 13 µM with mesenteric artery (Oryctolagus cuniculus) and 27 µM in the assay on bronchial tubes (Cavia porcellus).

Take `CCCCCCNCCCN(CCCCCC)S(=O)(=O)c1cccc2cnccc12` [Compound (33), N-(3-hexylaminopropyl)-N-hexyl-5-isoquinolinesulfonamide]: the EC50 with mesenteric artery (Oryctolagus cuniculus) was 13 µM; in the assay on bronchial tubes (Cavia porcellus) it was 19 µM.

For the compound `CCCNC1CCCN(S(=O)(=O)c2cccc3cnccc23)C1` (stereo not drawn) [Compound (66), 1-(5-isoquinolinesulfonyl)-3-propylaminopiperidine], the EC50 came out at 5 µM in the assay on mesenteric artery (Oryctolagus cuniculus) and 8 µM in the assay on bronchial tubes (Cavia porcellus).

Consider `CCCN(CCCCCCN)S(=O)(=O)c1cccc2cnccc12` [Compound (10), N-(6-aminohexyl)-N-propyl-5-isoquinolinesulfonamide], for which the EC50 in the assay with mesenteric artery (Oryctolagus cuniculus) came to 15 µM; in the assay with bronchial tubes (Cavia porcellus), 16 µM.

As for `CCCCCCC(CN(CCCC)S(=O)(=O)c1cccc2cnccc12)NCCC` (stereo not drawn) [Compound (38), N-(2-propylaminoocytyl)-N-butyl-5-isoquinolinesulfonamide], the EC50 in the assay with mesenteric artery (Oryctolagus cuniculus) stood at 8 µM; in the assay on bronchial tubes (Cavia porcellus), 23 µM.

Take `CCCCCCN(CCCCN)S(=O)(=O)c1cccc2cnccc12` [Compound (8), N-(4-aminobutyl)-N-hexyl-5-isoquinolinesulfonamide]: the EC50 in the assay on mesenteric artery (Oryctolagus cuniculus) worked out at 5 µM; in the assay with bronchial tubes (Cavia porcellus), 11 µM.

On to `CC(C)NC1CCCN(S(=O)(=O)c2cccc3cnccc23)C1` (stereo not drawn) [Compound (67), 1-(5-isoquinolinesulfonyl)-3-isopropylaminopiperidine], for which the values for the EC50 with mesenteric artery (Oryctolagus cuniculus) and with bronchial tubes (Cavia porcellus) were 14 µM and 10 µM, respectively.

For the compound `O=S(=O)(c1cccc2cnccc12)N1CCCC(Nc2ccccc2)C1` (stereo not drawn) [Compound (68), 1-(5-isoquinolinesulfonyl)-3-phenylaminopiperidine], the EC50 in the assay with mesenteric artery (Oryctolagus cuniculus) worked out at 16 µM.

As to `CCCCCCN(CC(C)N1CCCCC1)S(=O)(=O)c1cccc2cnccc12` (stereo not drawn) [Compound (48), N-hexyl-N-(2-piperidinopropyl)-5-isoquinolinesulfonamide], the values for the EC50 with mesenteric artery (Oryctolagus cuniculus) and in the assay with bronchial tubes (Cavia porcellus) were 24 µM and 20 µM, respectively.

In the case of `CCCNC1CCCN(S(=O)(=O)c2cccc3c(O)nccc23)C1` (stereo not drawn) [Compound (85), 1-(1-hydroxy-5-isoquinolinesulfonyl)-3-propylaminopiperidine], the values for the EC50 with mesenteric artery (Oryctolagus cuniculus) and with bronchial tubes (Cavia porcellus) were 13 µM and 11 µM, respectively.

`O=S(=O)(c1cccc2c(Cl)nccc12)N1CCC(NCc2ccccc2)CC1` [Compound (95), 1-(1-chloro-5-isoquinolinesulfonyl)-4-benzylaminopiperidine]: the results for the EC50 in the assay on mesenteric artery (Oryctolagus cuniculus) and in the assay with bronchial tubes (Cavia porcellus) were 14 µM and 18 µM, respectively.

As for `CC1CC(N)CN1S(=O)(=O)c1cccc2cnccc12` (stereo not drawn) [Compound (77), 1-(5-isoquinolinesulfonyl)-3-amino-5-methylpyrrolidine], the EC50 in the assay with mesenteric artery (Oryctolagus cuniculus) turned out to be 16 µM; with bronchial tubes (Cavia porcellus), 32 µM.

Take `CCCNCC(C)CCCCN(C)S(=O)(=O)c1cccc2cnccc12` (stereo not drawn) [Compound (41), N-methyl-N-(6-propylamino-5-methylhexyl)-5-isoquinolinesulfonamide]: the EC50 in the assay on mesenteric artery (Oryctolagus cuniculus) worked out at 17 µM; in the assay on bronchial tubes (Cavia porcellus), 22 µM.

As to `CCCN(C(CN)C(C)C)S(=O)(=O)c1cccc2cnccc12` (stereo not drawn) [Compound (18), N-(1-aminomethyl-2-methylpropyl)-N-propyl-5-isoquinolinesulfonamide], the EC50 in the assay with mesenteric artery (Oryctolagus cuniculus) and with bronchial tubes (Cavia porcellus) was 13 µM each time.

As to `CN(C)C1CCCN(S(=O)(=O)c2cccc3cnccc23)C1` (stereo not drawn) [Compound (73), 1-(5-isoquinolinesulfonyl)-3-dimethylaminopiperidine], the EC50 with mesenteric artery (Oryctolagus cuniculus) is 19 µM; with bronchial tubes (Cavia porcellus) it was 26 µM.

With `CCCN(CC(C)CN)S(=O)(=O)c1cccc2cnccc12` (stereo not drawn) [Compound (20), N-(3-amino-2-methylpropyl)-N-propyl-5-isoquinolinesulfonamide], the EC50 with mesenteric artery (Oryctolagus cuniculus) is 17 µM; in the assay with bronchial tubes (Cavia porcellus) it was 15 µM.

Turning to `NCCN(Cc1ccccc1)S(=O)(=O)c1cccc2cnccc12` [Compound (6), N-(2-aminoethyl)-N-benzyl-5-isoquinolinesulfonamide], the EC50 was 4 µM with mesenteric artery (Oryctolagus cuniculus) and 5 µM in the assay on bronchial tubes (Cavia porcellus).

On to `CCCCCCNCCN(CCCCCC)S(=O)(=O)c1cccc2cnccc12` [Compound (29), N-(2-hexylaminoethyl)-N-hexyl-5-isoquinolinesulfonamide], for which the EC50 came to 9 µM with mesenteric artery (Oryctolagus cuniculus) and 10 µM in the assay on bronchial tubes (Cavia porcellus).

Regarding `CCCNC1CCN(S(=O)(=O)c2cccc3cnccc23)CC1` [Compound (54), 1-(5-isoquinolinesulfonyl)-4-propylaminopiperidine], the figures for the EC50 in the assay with mesenteric artery (Oryctolagus cuniculus) and with bronchial tubes (Cavia porcellus) were 13 µM and 14 µM, respectively.

As to `CN(CCN)S(=O)(=O)c1cccc2cnccc12` [Compound (1), N-(2-aminoethyl)-N-methyl-5-isoquinolinesulfonamide], the EC50 came to 5 µM with mesenteric artery (Oryctolagus cuniculus) and 8 µM with bronchial tubes (Cavia porcellus).

Consider `CCN(CCCCCN1CCCCC1)S(=O)(=O)c1cccc2cnccc12` [Compound (50), N-ethyl-N-(5-piperidinopentyl)-5-isoquinolinesulfonamide], for which the EC50 with mesenteric artery (Oryctolagus cuniculus) and with bronchial tubes (Cavia porcellus) was 26 µM each time.

For the compound `CNC1CCN(S(=O)(=O)c2cccc3c(Cl)nccc23)CC1` [Compound (94), 1-(1-chloro-5-isoquinolinesulfonyl)-4-methylaminopiperidine], the EC50 stood at 18 µM with mesenteric artery (Oryctolagus cuniculus) and 22 µM with bronchial tubes (Cavia porcellus).

Regarding `O=S(=O)(c1cccc2cnccc12)N1CCC(N2CCCCC2)CC1` [Compound (62), 1-(5-isoquinolinesulfonyl)-4-piperidinopiperidine], the EC50 in the assay on mesenteric artery (Oryctolagus cuniculus) was determined as 22 µM; with bronchial tubes (Cavia porcellus), 23 µM.

As to `CCCCCCN(CC(C)NCC)S(=O)(=O)c1cccc2cnccc12` (stereo not drawn) [Compound (36), N-(2-ethylaminopropyl)-N-hexyl-5-isoquinolinesulfonamide], the EC50 in the assay on mesenteric artery (Oryctolagus cuniculus) amounted to 7 µM; with bronchial tubes (Cavia porcellus), 30 µM.

Consider `O=S(=O)(c1cccc2cnccc12)N1CCCC(NCc2ccccc2)C1` (stereo not drawn) [Compound (69), 1-(5-isoquinolinesulfonyl)-3-benzylaminopiperidine], for which the EC50 turned out to be 8 µM in the assay with mesenteric artery (Oryctolagus cuniculus) and 14 µM with bronchial tubes (Cavia porcellus).

On to “1-(1-chloro-5-isoquinolinesulfonyl)-3-(N-hexyl-N-methylamino)piperidine [Compound (100)]”, for which the EC50 in the assay with mesenteric artery and with bronchial tubes was 22 µM each time.

On to `CCCCCCC(N)CN(CCCCCC)S(=O)(=O)c1cccc2cnccc12` (stereo not drawn) [Compound (13), N-(2-aminooctyl)-N-hexyl-5-isoquinolinesulfonamide], for which the EC50 in the assay with mesenteric artery (Oryctolagus cuniculus) was found to be 5 µM; in the assay on bronchial tubes (Cavia porcellus), 19 µM.

Regarding `CCCCCCN(CCN(C)C)S(=O)(=O)c1cccc2cnccc12` [Compound (43), N-(2-dimethylaminoethyl)-N-hexyl-5-isoquinolinesulfonamide], the EC50 was determined as 20 µM with mesenteric artery (Oryctolagus cuniculus) and 27 µM with bronchial tubes (Cavia porcellus).

Regarding `CN(C)C1CCCN(S(=O)(=O)c2cccc3c(O)nccc23)C1` (stereo not drawn) [Compound (90), 1-(1-hydroxy-5-isoquinolinesulfonyl)-3-dimethylaminopiperidine], the EC50 turned out to be 23 µM in the assay with mesenteric artery (Oryctolagus cuniculus) and 17 µM with bronchial tubes (Cavia porcellus).

As to `CCCCCCN(C(C)CN(CC)CC)S(=O)(=O)c1cccc2cnccc12` (stereo not drawn) [Compound (49), N-(2-diethylamino-1-methylethyl)-N-hexyl-5-isoquinolinesulfonamide], in the assay with bronchial tubes (Cavia porcellus), the EC50 was 15 µM.

The values above are taken from US4798897A, “Isoquinoline derivatives” (Asahi Kasei Kogyo Kabushiki Kaisha, priority 1987, dated 1989).
